Laboratory results: ChEMBL document CHEMBL5236651, “Synthesis and antibacterial activity of novel 2‑fluoro ketolide antibiotics with 11,12‑quinoylalkyl side chains” (2023)
Values after ≈ are worked out from the molar mass of the structure shown.

What was measured:
Format in all cases: functional
Escherichia coli [1] = assay: Antibacterial activity against ESBL-negative Escherichia coli ATCC 25922 assessed as inhibition of bacterial growth by CLSI based micro broth double dilution method
Klebsiella pneumoniae [2] = assay: Antibacterial activity against ESBL positive Klebsiella pneumoniae ATCC 700603 assessed as inhibition of bacterial growth by CLSI based micro broth double dilution method
[3] = system: Staphylococcus epidermidis; assay: Antibacterial activity against methicillin-sensitive Staphylococcus epidermidis 16-4 assessed as inhibition of bacterial growth by CLSI based micro broth double dilution method
Pseudomonas aeruginosa [4] = assay: Antibacterial activity against Pseudomonas aeruginosa ATCC 27853 assessed as inhibition of bacterial growth by CLSI based micro broth double dilution method
Pseudomonas aeruginosa [5] = assay: Antibacterial activity against Pseudomonas aeruginosa PAO1 assessed as inhibition of bacterial growth by CLSI based micro broth double dilution method
Streptococcus pneumoniae [6] = assay: Antibacterial activity against erythromycin-sensitive Streptococcus pneumoniae ATCC 49619 assessed as inhibition of bacterial growth by CLSI based micro broth double dilution method
Klebsiella pneumoniae [7] = assay: Antibacterial activity against ESBL negative Klebsiella pneumoniae 7 assessed as inhibition of bacterial growth by CLSI based micro broth double dilution method
Streptococcus pneumoniae [8] = assay: Antibacterial activity against erythromycin-resistant Streptococcus pneumoniae 12-3 assessed as inhibition of bacterial growth by CLSI based micro broth double dilution method
Escherichia coli [9] = assay: Antibacterial activity against Escherichia coli 16-7 assessed as inhibition of bacterial growth by CLSI based micro broth double dilution method
Streptococcus pyogenes [10] = assay: Antibacterial activity against erythromycin-sensitive Streptococcus pyogenes ATCC 19615 assessed as inhibition of bacterial growth by CLSI based micro broth double dilution method
Staphylococcus aureus [11] = assay: Antibacterial activity against methicillin-sensitive Staphylococcus aureus 16-1 assessed as inhibition of bacterial growth by CLSI based micro broth double dilution method
Enterococcus faecalis [12] = assay: Antibacterial activity against vancomycin-sensitive Enterococcus faecalis […] assessed as inhibition of bacterial growth by CLSI based micro broth double dilution method
Enterococcus faecalis [13] = assay: Antibacterial activity against vancomycin-resistant Enterococcus faecalis ATCC 51299 assessed as inhibition of bacterial growth by CLSI based micro broth double dilution method
Streptococcus pyogenes [14] = assay: Antibacterial activity against erythromycin-resistant Streptococcus pyogenes 12-1 assessed as inhibition of bacterial growth by CLSI based micro broth double dilution method
Staphylococcus aureus [15] = assay: Antibacterial activity against methicillin-sensitive Staphylococcus aureus ATCC 29213 assessed as inhibition of bacterial growth by CLSI based micro broth double dilution method
[16] = system: Staphylococcus epidermidis; assay: Antibacterial activity against methicillin-sensitive Staphylococcus epidermidis ATCC 12228 assessed as inhibition of bacterial growth by CLSI based micro broth double dilution method
Klebsiella pneumoniae [17] = assay: Antibacterial activity against ESBL negative Klebsiella pneumoniae 16-2 assessed as inhibition of bacterial growth by CLSI based micro broth double dilution method
Pseudomonas aeruginosa [18] = assay: Antibacterial activity against Pseudomonas aeruginosa 16-11 assessed as inhibition of bacterial growth by CLSI based micro broth double dilution method
Staphylococcus aureus [19] = assay: Antibacterial activity against methicillin-sensitive Staphylococcus aureus 15 assessed as inhibition of bacterial growth by CLSI based micro broth double dilution method
Escherichia coli [20] = assay: Antibacterial activity against ESBL-positive Escherichia coli ATCC 35218 assessed as inhibition of bacterial growth by CLSI based micro broth double dilution method
Enterococcus faecalis [21] = assay: Antibacterial activity against vancomycin-resistant Enterococcus faecalis ATCC 51575 assessed as inhibition of bacterial growth by CLSI based micro broth double dilution method
Enterococcus faecalis [22] = assay: Antibacterial activity against vancomycin-sensitive Enterococcus faecalis 16-6 assessed as inhibition of bacterial growth by CLSI based micro broth double dilution method

SMILES	MIC (Escherichia coli [1]) [µg/mL]	MIC (Klebsiella pneumoniae [2]) [µg/mL]	MIC [3] [µg/mL]	MIC (Pseudomonas aeruginosa [4]) [µg/mL]	MIC (Pseudomonas aeruginosa [5]) [µg/mL]	MIC (Streptococcus pneumoniae [6]) [µg/mL]	MIC (Klebsiella pneumoniae [7]) [µg/mL]	MIC (Streptococcus pneumoniae [8]) [µg/mL]	MIC (Escherichia coli [9]) [µg/mL]	MIC (Streptococcus pyogenes [10]) [µg/mL]	MIC (Staphylococcus aureus [11]) [µg/mL]	MIC (Enterococcus faecalis [12]) [µg/mL]	MIC (Enterococcus faecalis [13]) [µg/mL]	MIC (Streptococcus pyogenes [14]) [µg/mL]	MIC (Staphylococcus aureus [15]) [µg/mL]	MIC [16] [µg/mL]	MIC (Klebsiella pneumoniae [17]) [µg/mL]	MIC (Pseudomonas aeruginosa [18]) [µg/mL]	MIC (Staphylococcus aureus [19]) [µg/mL]	MIC (Escherichia coli [20]) [µg/mL]	further results
CC[C@H]1OC(=O)[C@@](C)(F)C(=O)[C@H](C)[C@@H](O[C@@H]2O[C@H](C)C[C@H](N(C)C)[C@H]2O)[C@@](C)(OC)C[C@@H](C)C(=O)[C@H](C)[C@H]2N(CCCNc3ccnc4ccccc34)C(=O)O[C@]12C	4 (≈ 4.91 µM)	32 (≈ 39.3 µM)	0.25 (≈ 0.307 µM)	> 32	> 32	≤ 0.016	8 (≈ 9.82 µM)	0.06 (≈ 0.0736 µM)	8 (≈ 9.82 µM)	0.06 (≈ 0.0736 µM)	0.12 (≈ 0.147 µM)	0.12 (≈ 0.147 µM)	> 32	> 32	0.12 (≈ 0.147 µM)	0.06 (≈ 0.0736 µM)	16 (≈ 19.6 µM)	> 32	0.12 (≈ 0.147 µM)	8 (≈ 9.82 µM)	MIC (Enterococcus faecalis [21]): > 32 µg/mL; MIC (Enterococcus faecalis [22]): > 32 µg/mL
CC[C@H]1OC(=O)[C@@](C)(F)C(=O)[C@H](C)[C@@H](O[C@@H]2O[C@H](C)C[C@H](N(C)C)[C@H]2O)[C@@](C)(OC)C[C@@H](C)C(=O)[C@H](C)[C@H]2N(CCCN(C(=O)c3ccccc3)c3ccnc4ccccc34)C(=O)O[C@]12C	> 32	> 32	1 (≈ 1.09 µM)	> 32	> 32	≤ 0.016	> 32	0.06 (≈ 0.0653 µM)	> 32	0.12 (≈ 0.131 µM)	0.5 (≈ 0.544 µM)	0.25 (≈ 0.272 µM)	> 32	> 32	1 (≈ 1.09 µM)	1 (≈ 1.09 µM)	> 32	> 32	1 (≈ 1.09 µM)	> 32	MIC (Enterococcus faecalis [21]): > 32 µg/mL; MIC (Enterococcus faecalis [22]): > 32 µg/mL
CC[C@H]1OC(=O)[C@@](C)(F)C(=O)[C@H](C)[C@@H](O[C@@H]2O[C@H](C)C[C@H](N(C)C)[C@H]2O)[C@@](C)(OC)C[C@@H](C)C(=O)[C@H](C)[C@H]2N(CCCN(C(=O)c3ccccc3)c3cnc4ccccc4c3)C(=O)O[C@]12C	> 32	> 32	1 (≈ 1.09 µM)	> 32	> 32	≤ 0.016	> 32	0.06 (≈ 0.0653 µM)	> 32	0.03 (≈ 0.0326 µM)	0.25 (≈ 0.272 µM)	0.12 (≈ 0.131 µM)	> 32	32 (≈ 34.8 µM)	0.25 (≈ 0.272 µM)	0.12 (≈ 0.131 µM)	> 32	> 32	0.25 (≈ 0.272 µM)	> 32	MIC (Enterococcus faecalis [21]): > 32 µg/mL; MIC (Enterococcus faecalis [22]): > 32 µg/mL
CC[C@H]1OC(=O)[C@@](C)(F)C(=O)[C@H](C)[C@@H](O[C@@H]2O[C@H](C)C[C@H](N(C)C)[C@H]2O)[C@@](C)(OC)C[C@@H](C)C(=O)[C@H](C)[C@H]2N(CCCN(C(C)=O)c3ccnc4ccccc34)C(=O)O[C@]12C	32 (≈ 37.3 µM)	32 (≈ 37.3 µM)	0.25 (≈ 0.292 µM)	> 32	> 32	≤ 0.016	> 32	0.03 (≈ 0.035 µM)	32 (≈ 37.3 µM)	0.03 (≈ 0.035 µM)	0.06 (≈ 0.07 µM)	0.06 (≈ 0.07 µM)	4 (≈ 4.67 µM)	2 (≈ 2.33 µM)	0.12 (≈ 0.14 µM)	0.06 (≈ 0.07 µM)	> 32	> 32	0.06 (≈ 0.07 µM)	32 (≈ 37.3 µM)	MIC (Enterococcus faecalis [21]): 4 µg/mL (≈ 4.67 µM); MIC (Enterococcus faecalis [22]): 4 µg/mL (≈ 4.67 µM)
CC[C@H]1OC(=O)[C@@](C)(F)C(=O)[C@H](C)[C@@H](O[C@@H]2O[C@H](C)C[C@H](N(C)C)[C@H]2O)[C@@](C)(OC)C[C@@H](C)C(=O)[C@H](C)[C@H]2N(CCCNc3cnc4ccccc4c3)C(=O)O[C@]12C	16 (≈ 19.6 µM)	> 32	0.12 (≈ 0.147 µM)	32 (≈ 39.3 µM)	16 (≈ 19.6 µM)	≤ 0.016	> 32	≤ 0.016	32 (≈ 39.3 µM)	0.12 (≈ 0.147 µM)	0.12 (≈ 0.147 µM)	0.06 (≈ 0.0736 µM)	> 32	32 (≈ 39.3 µM)	0.12 (≈ 0.147 µM)	0.12 (≈ 0.147 µM)	> 32	32 (≈ 39.3 µM)	0.12 (≈ 0.147 µM)	32 (≈ 39.3 µM)	MIC (Enterococcus faecalis [21]): > 32 µg/mL; MIC (Enterococcus faecalis [22]): > 32 µg/mL
CC[C@H]1OC(=O)[C@@](C)(F)C(=O)[C@H](C)[C@@H](O[C@@H]2O[C@H](C)C[C@H](N(C)C)[C@H]2O)[C@@](C)(OC)C[C@@H](C)C(=O)[C@H](C)[C@H]2N(CCCN(C(=O)CCc3ccccc3)c3cnc4ccccc4c3)C(=O)O[C@]12C	> 32	> 32	4 (≈ 4.22 µM)	> 32	> 32	≤ 0.016	> 32	0.06 (≈ 0.0633 µM)	> 32	0.5 (≈ 0.528 µM)	1 (≈ 1.06 µM)	0.5 (≈ 0.528 µM)	> 32	16 (≈ 16.9 µM)	1 (≈ 1.06 µM)	0.5 (≈ 0.528 µM)	> 32	> 32	1 (≈ 1.06 µM)	> 32	MIC (Enterococcus faecalis [21]): > 32 µg/mL; MIC (Enterococcus faecalis [22]): > 32 µg/mL
CC[C@H]1OC(=O)[C@@](C)(F)C(=O)[C@H](C)[C@@H](O[C@@H]2O[C@H](C)C[C@H](N(C)C)[C@H]2O)[C@@](C)(OC)C[C@@H](C)C(=O)[C@H](C)[C@H]2N(CCCN(C(=O)/C=C/c3ccccc3)c3ccnc4ccccc34)C(=O)O[C@]12C	> 32	32 (≈ 33.9 µM)	1 (≈ 1.06 µM)	> 32	> 32	≤ 0.016	> 32	0.5 (≈ 0.529 µM)	> 32	0.5 (≈ 0.529 µM)	0.5 (≈ 0.529 µM)	0.5 (≈ 0.529 µM)	> 32	8 (≈ 8.46 µM)	1 (≈ 1.06 µM)	1 (≈ 1.06 µM)	> 32	> 32	1 (≈ 1.06 µM)	> 32	MIC (Enterococcus faecalis [21]): > 32 µg/mL; MIC (Enterococcus faecalis [22]): > 32 µg/mL
CC[C@H]1OC(=O)[C@@](C)(F)C(=O)[C@H](C)[C@@H](O[C@@H]2O[C@H](C)C[C@H](N(C)C)[C@H]2O)[C@@](C)(OC)C[C@@H](C)C(=O)[C@H](C)[C@H]2N(CCCN(C(=O)/C=C/c3ccccc3)c3cnc4ccccc4c3)C(=O)O[C@]12C	> 32	32 (≈ 33.9 µM)	2 (≈ 2.12 µM)	> 32	> 32	≤ 0.016	> 32	0.25 (≈ 0.265 µM)	> 32	0.25 (≈ 0.265 µM)	1 (≈ 1.06 µM)	0.5 (≈ 0.529 µM)	> 32	8 (≈ 8.46 µM)	1 (≈ 1.06 µM)	1 (≈ 1.06 µM)	> 32	> 32	1 (≈ 1.06 µM)	> 32	MIC (Enterococcus faecalis [21]): > 32 µg/mL; MIC (Enterococcus faecalis [22]): > 32 µg/mL
CC[C@H]1OC(=O)[C@@](C)(F)C(=O)[C@H](C)[C@@H](O[C@@H]2O[C@H](C)C[C@H](N(C)C)[C@H]2O)[C@@](C)(OC)C[C@@H](C)C(=O)[C@H](C)[C@H]2N(CCCN(Cc3ccccc3)c3cnc4ccccc4c3)C(=O)O[C@]12C	> 32	32 (≈ 35.4 µM)	1 (≈ 1.1 µM)	> 32	> 32	0.03 (≈ 0.0331 µM)	8 (≈ 8.84 µM)	0.25 (≈ 0.276 µM)	> 32	0.12 (≈ 0.133 µM)	0.5 (≈ 0.552 µM)	0.5 (≈ 0.552 µM)	> 32	8 (≈ 8.84 µM)	1 (≈ 1.1 µM)	0.25 (≈ 0.276 µM)	> 32	> 32	0.5 (≈ 0.552 µM)	> 32	MIC (Enterococcus faecalis [21]): > 32 µg/mL; MIC (Enterococcus faecalis [22]): > 32 µg/mL
CC[C@H]1OC(=O)[C@@](C)(F)C(=O)[C@H](C)[C@@H](O[C@@H]2O[C@H](C)C[C@H](N(C)C)[C@H]2O)[C@@](C)(OC)C[C@@H](C)C(=O)[C@H](C)[C@H]2N(CCCN(C(C)=O)c3cnc4ccccc4c3)C(=O)O[C@]12C	> 32	32 (≈ 37.3 µM)	1 (≈ 1.17 µM)	> 32	> 32	0.06 (≈ 0.07 µM)	> 32	0.25 (≈ 0.292 µM)	> 32	0.25 (≈ 0.292 µM)	0.25 (≈ 0.292 µM)	0.12 (≈ 0.14 µM)	> 32	> 32	0.25 (≈ 0.292 µM)	0.25 (≈ 0.292 µM)	> 32	> 32	0.25 (≈ 0.292 µM)	> 32	MIC (Enterococcus faecalis [21]): > 32 µg/mL; MIC (Enterococcus faecalis [22]): > 32 µg/mL
